Like-named read-outs stand apart in the source and are kept apart here.
What was measured:
PDGFRα mRNA = test: PDGFRα mRNA, real-time RT-PCR; format: cell-based, rat; conditions: MeHg exposure
Method: Total RNA was isolated using TRIZOL reagent (Inviirogen, Carlsbad, Calif., United States) according to the manufacturer's protocol. A total of 1 μg of RNA was subjected to reverse transcription using Superscript II (In vitrogen). The reactions were incubated at 42° C. for 50 min. The FAM-iabeled probe mixes for rat PDGFRα and Fyn, and the VIC-labeled GAPDH probe mix were purchased from Applied Biosystems (Foster City Calif., United States). For multiplex real-time PCR, reactions each containing 5 μl of 10-fold diluted reverse transcription product, 1 μl of interest gene probe mix. 1 μl of GAPDH probe mix, and 10 μl of TaqMan Universal PCR Master Mix were performed on an iCycler iQ multicolor real-time PCR system (Bio-Rad, Hercules, Calif., United States) and cycling condition was 50° C. for 2 min and 95° C. for 10 min, followed by 40 cycles of 95° C. for 15 sec and 60° C. for 1 min. Each sample was run in triplicate. Data were analyzed, by iCycler iQ software (Bio-Rad).

TrkC = TrkC levels in brain tissue after developmental exposure; format: in vivo, SJL mice; conditions: 100 or 250 ppb MeHg in maternal drinking water
Text: Anti-phosphorylated Erk monoclonal, anti-Erk monoclonal, anti-TrkC polyclonal anti-Fyn polyclonal, anti-EGFR polyclonal, anti-c-Met polyclonal, anti-phospho-tyrosine monoclonal, and anti-PDGFRα polyclonal antibodies were obtained from Santa Cruz Biotechnology (Santa Cruz, Calif., United States). Anti-c-Cbl monoclonal antibody was obtained from BD PharMingen (San Diego, Calif., United States). Anti-phosphorylated Akt monoclonal and anti-Akt polyclonal antibodies were obtained from Cell Signaling Technology (Beverly, Mass., United States). Anti-phosphorylated PDGPRα polyclonal antibody was obtained from Biosource (Carlsbad, Calif., United States). The cell culture samples were collected and lysed in RAPI buffer, whereas dissected tissue samples were sonicated in RAPI buffer. Samples were resolved on SDS-PAGE gels and transferred to PVDF membranes (PerkinElmer Life Science. Wellesley, Mass., United States), After being blocked in 5% skim milk in PBS containing 0.1% Tween 20, membranes were incubated with a primary antibody, followed by incubation with an HRP-conjugated secondary antibody (Santa Cruz Biotechnology). Membranes were visualized using Western Blotting Luminol Reagent (Santa Cruz Biotechnology). […]

[1] = Brain mercury levels in offspring after maternal drinking water exposure; format: in vivo, mice
Method: Six-week-old female SJL mice were treated with MeHg in their drinking water at a concentration of 100 or 250 ppb for 30-60 d prior to mating, and then throughout pregnancy and gestation. This is a level of treatment that is 75%-90% below levels generally considered to be low to moderate and is below levels that have been associated with gross defects in adult or developing animals (e.g., [69-73]).
In the present study, exposure of female mice to MeHg in their drinking water at a concentration of 250 ppb prior to conception, and maintenance of this exposure during suckling, was associated with brain mercury levels in the offspring (examined at P.14) of 50 ng/g, a fall that was precisely in agreement with predictions based on prior studies on the fall of mercury levels occurring during this period in suckling mice. […] The exposure levels of 100 and 250 ppb are 75%-90% below what has otherwise been considered to be low-dose exposure in mice.

[2] = 14 mo of age, cited from earlier work
PDGFRα = test: PDGFR ubiquitylation (immunoprecipitation assay); format: cell-based, rat; conditions: MeHg exposure
Method: For the co-immunoprecipitation assay, anti-c-Cbl monoclonal antibody (BD PharMingen) or anti-PDGFRα polyclonal antibody (Santa Cruz Biotechnology) was added to the pre-cleared cell lysates (250 μg of total protein), and the mixtures were gently rocked for 2 h at 4° C. A total of 30 μl of protein A/G agarose was then added to the mixture followed by rotating at 4° C. overnight. The protein A/G agarose was then spun down and washed thoroughly three times. The precipitates were resolved on an 8% SDS-PAGE gel and then were subjected to Western blot analysis using an anti-p-Tyr (for c-Cbl phosphorylation assay) or ubiquitin (for PDGFR ubiquitylation assay) antibody (Santa Cruz Biotechnology).

O-2A/OPCs [3] = test: Cell death of O-2A/OPCs on exposure; format: cell-based, rat
Method: To generate sufficient numbers of cells for biochemical analysis, cells, were expanded through one to two passages in PDGF+FGF-2 before replating in the presence of PDGF alone. When cells achieved approximately 50% confluence, MeHg, Pb, or paraquat was added to their medium at concentrations indicated. Doses for the toxicants were chosen on the basis of dose-response curves to identify sub-lethal exposure levels, as a reflection of blood and brain toxicant levels of these compounds and, where applicable, on the basis of previous reports. All toxicant concentrations examined were confirmed to cause death of less than 5% of cells over the time course of the experiment.

O-2A/OPCs [4] = test: Analysis of Pb uptake (Leadmium Green AM); format: cell-based, rat; conditions: 1 μM Pb, 1 mM NAC
Method: Pre-treatment with NAC was assayed to determine whether levels of intracellular Pb was altered using analysis with the Leadmium Green AM dye (Molecular Probes), according to the manufacturer's instructions. […] (unpaired t-test), and the values for both Pb-treated samples were several-fold higher than control values.

[CH3][Hg][Cl] [MeHg, methylmercury]
levels of PDGFRα mRNA (PDGFRα mRNA): did not have any significant effects
levels of TrkC in brain (TrkC): not reduced
brain mercury in offspring ([1]; 100 ppb MeHg in maternal drinking water): below the levels of detection
brain mercury levels in the offspring ([1]; 250 ppb MeHg in maternal drinking water, examined at P14): 50 ng/g
brain levels of MeHg ([2]; 1 ppm in drinking water from conception): 1.20 mg/kg
brain levels of MeHg ([2]; 3 ppm in drinking water): 3.66 mg/kg
ubiquitylation of PDGFRα (PDGFRα): enhanced ubiquitylation
cell death at the concentrations used (O-2A/OPCs [3]; MeHg at lower concentrations (not above 50 nM), 1 μM Pb, 5 μM paraquat): little or no cell death
exposure level associated with significant lethality (O-2A/OPCs [3]; O-2A/OPCs): above 50 nM

CC(=O)N[C@@H](CS)C(=O)O [NAC, N-acetyl-L-cysteine]
Pb levels in cells, Pb versus Pb and NAC (O-2A/OPCs [4]): no significant difference

— patent US20080171710A1, “The Redox/Fyn/c-Cbl Pathway” (priority 2007, published 2008)
